# Measurements: patent US6620828B2, “Thiazole compounds and pharmaceutical compositions for inhibiting protein kinases and methods for their use” (Agouron Pharmaceuticals, Inc., priority 1999, dated 2003)
# How the values were obtained:
# [1] = tested on: lung cancer cells (line MV522); test: Cancer cell proliferation (MV522) assay; format: cell-based
# Description: Cancer Cell Proliferation (MV522) Assay
# The protocol for assessing cellular proliferation in cancer cells is similar to that used for assessments in HUVEC cells. Two thousand lung cancer cells (line MV522, acquired from American Tissue Cultural Collection) were seeded in growth media (RPMI1640 medium supplemented with 2 mM glutamine and 10% FBS). Cells are allowed to attach for 1 day prior to addition of test agents and/or vehicles. Cells are treated simultaneously with the same test agents used in the HUVEC assay. Cellular proliferation is quantified by MTT dye reduction assay 72 hours after exposure to test agents. The total length of the assay is 4 days vs. 5 for HUVEC cells because MV522 cells are not exposed to starvation medium.
# [2] = molecular target: T1, phosphorylated VEGF-R2Δ50 (FLVK-P) (Homo sapiens, UniProt P35968, DEL940-989/E990V); test: VEGF-R2 coupled spectrophotometric (FLVK-P) assay; format: biochemical; conditions: Table 1; spectrophotometric assay
# T1 construct: VEGF-R2Δ50 contains residues 806-939 and 990-1171; made in house; host or cells: baculovirus/insect cells
# Method in brief: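 Baculovirus-expressed human VEGF-R2Δ50 (residues 806-939/990-1171, E990V) was autophosphorylated with 3 mM ATP, 40 mM MgCl2 for 2 h at 4° C. ADP formation was coupled via PK/LDH to NADH oxidation, read at 340 nm, with 5.1 mM poly(E4Y1), 1 mM ATP, 25 mM MgCl2, Hepes pH 7.5. Ki came from activity across compound concentrations.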
# [3] = tested on: human umbilical vein endothelial cells (HUVEC); test: HUVEC proliferation assay; format: cell-based; conditions: Homo sapiens, HUVEC
# Method in brief: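 Exponentially growing HUVEC were serum-starved 24 h (F12K + 1% FBS), pre-treated 1 h with compound (0.1% DMSO final), then stimulated with 6 ng/ml VEGF. Proliferation was read 72 h later by MTT reduction (A595). IC50 came from seven 0.5-log concentrations in triplicate; screens gave % inhibition relative to VEGF-only and starved wells.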
# [4] = molecular target: T2, unphosphorylated VEGF-R2Δ50 (FLVK) (Homo sapiens, UniProt P35968, DEL940-989/E990V); test: VEGF-R2 coupled spectrophotometric assay, unphosphorylated enzyme (FLVK); format: biochemical; conditions: Table 3; some entries 'Slow binder'
# T2 construct: VEGF-R2Δ50 contains residues 806-939 and 990-1171; made in house; host or cells: baculovirus/insect cells
# Method in brief: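 Unphosphorylated VEGF-R2Δ50 (5 to 40 nM) with 20 mM poly(E4Y1), 3 mM ATP, 60 mM MgCl2, 2 mM MnCl2 in 200 mM Hepes pH 7.5. ADP production coupled via PK/LDH to NADH oxidation, read at 340 nm. Ki from activity at varying compound concentrations.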
# T1 sequence (P35968 with tags, fused parts or gaps DEL940-989/E990V limits assumed): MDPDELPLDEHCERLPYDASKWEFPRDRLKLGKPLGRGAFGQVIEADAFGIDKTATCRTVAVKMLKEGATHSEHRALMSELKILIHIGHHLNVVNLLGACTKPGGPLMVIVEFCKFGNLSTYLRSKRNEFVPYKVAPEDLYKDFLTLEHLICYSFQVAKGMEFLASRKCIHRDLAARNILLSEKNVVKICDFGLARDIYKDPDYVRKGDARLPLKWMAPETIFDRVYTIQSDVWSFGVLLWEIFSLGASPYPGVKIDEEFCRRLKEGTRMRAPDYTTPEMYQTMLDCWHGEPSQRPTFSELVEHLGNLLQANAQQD
# T2 sequence (P35968 with tags, fused parts or gaps DEL940-989/E990V limits assumed): as above
Structure (SMILES),"IC50 ([1]; MV522, Table 1) [nM]",Ki [2] [nM],IC50 ([3]; Table 1) [nM],"IC50 ([1]; MV522, Table 3) [nM]",IC50 ([3]; Table 3) [nM],Ki [4] [nM]
"COc1cc(Nc2nc(N)c(-c3nc(-c4cccc(NC(=O)c5ccc(Br)s5)c4)cs3)s2)cc(OC)c1OC [D(36), 5-Bromo-thiophene-2-carboxylic acid {3-[4′-amino-2′-(3,4,5-trimethoxy-phenylamino)-[2,5′]bithiazolyl-4-yl]-phenyl}-amide]",> 10000,2,43,–,–,–
"COc1cc(Nc2nc(N)c(-c3nc(-c4cccc(NC(=O)O[C@H](C)c5ccccc5)c4)cs3)s2)cc(OC)c1OC [D(23), {3-[4′-Amino-2′-(3,4,5-trimethoxy-phenylamino)-[2,5′]bithiazolyl-4-yl]-phenyl}-carbamic acid 1-R-phenyl-ethyl ester]",> 10000,150,130,–,–,–
"COc1cc(Nc2nc(N)c(-c3nc(-c4cccc(NC(=O)c5cccc(Br)c5)c4)cs3)s2)cc(OC)c1OC [D(29), N-{3-[4′-Amino-2′-(3,4,5-trimethoxy-phenylamino)-[2,5′]bithiazolyl-4-yl]-phenyl}-3-bromo-benzamide]",> 10000,1.4,32,–,–,–
"COc1cc(C(=O)Nc2cccc(-c3csc(-c4sc(Nc5cc(OC)c(OC)c(OC)c5)nc4N)n3)c2)ccc1C [D(32), N-{3-[4′-Amino-2′-(3,4,5-trimethoxy-phenylamino)-[2,5′]bithiazolyl-4-yl]-phenyl}-3-methoxy-4-methyl-benzamide]",> 10000,3.9,59,–,–,–
"COc1cccc(C(=O)Nc2cccc(-c3csc(-c4sc(Nc5cc(OC)c(OC)c(OC)c5)nc4N)n3)c2)c1 [D(41), N-{3-[4′-Amino-2′-(3,4,5-trimethoxy-phenylamino)-[2,5′]bithiazolyl-4-yl]-phenyl}-3-methoxy-benzamide]",> 10000,1.9,37,–,–,–
"COc1cc(Nc2nc(N)c(-c3nc(-c4cccc(NC(=O)c5cccc(C(F)(F)F)c5)c4)no3)s2)cc(OC)c1OC [D(49), 3-[3-(3-Trifluoromethylbenzamido)phenyl]-5-[2-[(3,4,5-trimethoxyphenyl)amino]-4-amino-5-thiazolyl]-1,2,4-oxadiazole]",> 10000,1.6,15,–,–,–
"COc1cc(Nc2nc(N)c(-c3nc(-c4cccc(NC(=O)c5cccc(C(C)C)c5)c4)cs3)s2)cc(OC)c1OC [D(27), N-{3-[4′-Amino-2′-(3,4,5-trimethoxy-phenylamino)-[2,5′]bithiazolyl-4-yl]-phenyl}-3-isopropyl-benzamide]",> 10000,1.8,82,–,–,–
"COc1cc(Nc2nc(N)c(-c3nc(-c4cccc(NC(C)=O)c4)no3)s2)cc(OC)c1OC [D(45), 3-[3-Acetamidophenyl]-5-[2-[(3,4,5-trimethoxyphenyl)amino]-4-amino-5-thiazolyl]-1,2,4-oxadiazole]",650,–,235,–,–,–
"Nc1nc(Nc2ccccc2)sc1-c1nc(-c2cccc(NC(=O)OCc3ccccc3)c2)cs1 [D(20), [3-(4′-Amino-2′-phenylamino-[2,5′]bithiazolyl-4-yl)-phenyl]-carbamic acid benzyl ester]",> 10000,3.7,990,–,–,–
"COc1cccc(C(=O)Nc2cccc(-c3noc(-c4sc(Nc5cc(OC)c(OC)c(OC)c5)nc4N)n3)c2)c1 [D(48), 3-[3-(3-Methoxybenzamido)phenyl]-5-[2-[(3,4,5-trimethoxyphenyl)amino]-4-amino-5-thiazolyl]-1,2,4-oxadiazole]",> 10000,4.1,40,–,–,–
"CCc1cccc(C(=O)Nc2cccc(-c3csc(-c4sc(Nc5cc(OC)c(OC)c(OC)c5)nc4N)n3)c2)c1 [D(39), N-{3-[4′-Amino-2′-(3,4,5-trimethoxy-phenylamino)-[2,5′]bithiazolyl-4-yl]-phenyl}-3-ethyl-benzamide]",> 10000,1.4,62,–,–,–
"COc1cc(Nc2nc(N)c(-c3nc(-c4cccc(NC(=O)c5cccc(Cl)c5)c4)no3)s2)cc(OC)c1OC [D(50), 3-[3-(3-Chlorobenzamido)phenyl]-5-[2-[(3,4,5-trimethoxyphenyl)amino]-4-amino-5-thiazolyl]-1,2,4-oxadiazole]",> 10000,1.4,17,–,–,–
"COc1ccc(Nc2nc(N)c(-c3nc(-c4cccc(NC(=O)c5ccccc5)c4)cs3)s2)cc1OC [A(47), N-{3-[4′-Amino-2′-(3,4-dimethoxy-phenylamino)-[2,5′]bithiazolyl-4-yl]-phenyl}-benzamide]",> 10000,7.9,260,–,–,–
"COc1cc(Nc2nc(N)c(-c3nc(-c4cccc(NS(C)(=O)=O)c4)cs3)s2)cc(OC)c1OC [D(3), N-{3-[4′-Amino-2′-(3,4,5-trimethoxy-phenylamino)-[2,5′]bithiazolyl-4-yl]-phenyl}-methanesulfonamide]",> 10000,63,> 700,–,–,–
"CNc1nc(N)c(-c2nc(-c3cc(NC(=O)c4cccc(OC)c4)ccc3C)no2)s1 [B(17), N-(3-{5-[4-Amino-2-(3,4,5-methylamino)-thiazol-5-yl]-[1,2,4]oxadiazol-3-yl]-4-methyl-phenyl}-3-methoxy-benzamide]",–,–,–,1300,63,3.4
"COc1cc(Nc2nc(N)c(-c3nc(-c4cccc(NC(=O)c5cccc(C)c5)c4)cs3)s2)cc(OC)c1OC [D(38), N-{3-[4′-Amino-2′-(3,4,5-trimethoxy-phenylamino)-[2,5′]bithiazolyl-4-yl]-phenyl}-3-methyl-benzamide]",> 10000,0.93,40,–,–,–
"COc1cc(Nc2nc(N)c(-c3nc(-c4cccc(NC(=O)c5ccc(Br)o5)c4)cs3)s2)cc(OC)c1OC [D(37), 5-Bromo-furan-2-carboxylic acid {3-[4′-amino-2′-(3,4,5-trimethoxy-phenylamino)-[2,5′]bithiazolyl-4-yl]-phenyl}-amide]",> 10000,3.4,150,–,–,–
"COc1cc(Nc2nc(N)c(-c3nc(-c4cccc(NC(=O)c5ccccc5)c4)no3)s2)cc(OC)c1OC [D(46), 3-[3-Benzamidophenyl]-5-[2-[(3,4,5-trimethoxyphenyl)amino]-4-amino-5-thiazolyl]-1,2,4-oxadiazole]",> 10000,17.1,123,–,–,–
"COc1cc(Nc2nc(N)c(-c3nc(-c4cccc(NC(=O)c5ccc(Cl)s5)c4)cs3)s2)cc(OC)c1OC [D(35), 5-Chloro-thiophene-2-carboxylic acid {3-[4′-amino-2′-(3,4,5-trimethoxy-phenylamino)-[2,5′]bithiazolyl-4-yl]-phenyl}-amide]",> 10000,1.8,42,–,–,–
"COc1cc(Nc2nc(N)c(-c3nc(-c4cccc(NC(=O)c5ccc(Cl)c(C)c5)c4)cs3)s2)cc(OC)c1OC [D(30), N-{3-[4′-Amino-2′-(3,4,5-trimethoxy-phenylamino)-[2,5′]bithiazolyl-4-yl]-phenyl}-4-chloro-3-methyl-benzamide]",> 10000,2.9,48,–,–,–
"COc1cc(Nc2nc(N)c(-c3nc(-c4cccc(NC(=O)c5ccc(C)s5)c4)cs3)s2)cc(OC)c1OC [D(34), 5-Methyl-thiophene-2-carboxylic acid {3-[4′-amino-2′-(3,4,5-trimethoxy-phenylamino)-[2,5′]bithiazolyl-4-yl]-phenyl}-amide]",9000,0.85,89,–,–,–
"Nc1nc(Nc2ccc(S(N)(=O)=O)cc2)sc1-c1nc(-c2cccc(NC(=O)OCc3ccccc3)c2)cs1 [D(25), {3-[4′-Amino-2′-(4-sulfamoyl-phenylamino)-[2,5′]bithiazolyl-4-yl]-phenyl}-carbamic acid benzyl ester]",> 10000,1,745,–,–,–
"COc1cc(Nc2nc(N)c(-c3nc(-c4cccc(NC(=O)OC(C)(C)C)c4)cs3)s2)cc(OC)c1OC [D(43), {3-[4′-Amino-2′-(3,4,5-trimethoxy-phenylamino)-[2,5′]bithiazolyl-4-yl]-phenyl}-carbamic acid tert-butyl ester]",> 10000,2.9,241,–,–,–
"COc1cc(Nc2nc(N)c(-c3nc(-c4cccc(NC(=O)OC(C)(C)C)c4)no3)s2)cc(OC)c1OC [B(2), 3-(3-tert-Butyloxycarboxy-aminophenyl)-5-[2-[(3,4,5-trimethoxyphenyl)amino]-4-amino-5-thiazolyl]-1,2,4-oxadiazole]",3650,16.5,> 700,–,–,–
